From patent publication US20070128217A1 (priority 2003, published 2007)

What was measured:
[1] = test system: control sera (pooled serum of ten healthy LUMC hospital workers; commercial negative donor pooled serum from the Dutch bloodbank); type: binding, human; design: Binding of Control serum LUMC to linear peptides / Binding of Control serum Blood-bank to linear peptides / Binding of Control serum LUMC to looped peptides / Binding of Control Serum Blood-Bank to Looped peptides / Binding of Control serum LUMC to linear peptides of the protein M of SARS-CoV Urbani / Binding of Control serum Blood-bank to linear peptides of the protein M of SARS-CoV Urbani / Binding of Control serum LUMC to looped peptides of the protein M of SARS-CoV Urbani / Binding of Control Serum Blood-Bank to Looped peptides of the protein M of SARS-CoV Urbani: unit not given here
[2] = test system: rabbit serum obtained by immunizing a rabbit with the SARS-CoV strain Frankfurt 1; type: binding; design: Binding of a rabbit serum to linear peptides / Binding of a rabbit serum to looped peptides / Rabbit serum linear peptides / Rabbit serum looped peptides / Binding of a rabbit serum to linear peptides of protein N of SARS-CoV Urbani (Rabbit serum linear peptides) / Binding of a rabbit serum to looped/cyclic peptides of protein N of SARS-CoV Urbani (Rabbit serum looped peptides): unit not given here
[3] = test system: antibodies in sera from SARS patients (sera 1a, 1b, 2, 6, 37, 62, London, SARS-yellow, SARS-green); type: binding, human; design: Binding of serum 6 to linear peptides of protein X1 of SARS-CoV Urbani / Binding of serum 37 to linear peptides of protein X1 of SARS-CoV Urbani / Binding of serum 6 to looped/cyclic peptide (PEPSCAN-ELISA) / Binding of serum 37 to looped/cyclic peptide (PEPSCAN-ELISA) / Binding of serum 37 to looped/cyclic peptides of protein X1 of SARS-CoV Urbani / Binding of serum 6 to linear peptides of protein X2 / Binding of serum 37 to linear peptides of protein X2 / Binding of serum 37 to looped/cyclic peptides of protein X2 of SARS-CoV Urbani / Binding of serum 6 to linear peptides of protein M of SARS-CoV Urbani / Binding of serum 37 to linear peptides of protein M of SARS-CoV Urbani / Binding of serum 6 to looped/cyclic peptides of protein M of SARS-CoV Urbani / Binding of serum 37 to looped/cyclic peptides of protein M of SARS-CoV Urbani / Binding of serum 6 to linear peptides of protein X3 of SARS-CoV Urbani / Binding of serum 37 to linear peptides of protein X3 of SARS-CoV Urbani / Binding of serum 37 to looped/cyclic peptides of protein X3 of SARS-CoV Urbani / Binding of serum 6 to linear peptides of protein X4 of SARS-CoV Urbani / Binding of serum 37 to linear peptides of protein X4 of SARS-CoV Urbani / Binding of serum 37 to looped/cyclic peptides of protein X4 of SARS-CoV Urbani / Binding of serum 6 to linear peptides of protein X5 of SARS-CoV Urbani / Binding of serum 37 to linear peptides of protein X5 of SARS-CoV Urbani / Binding of serum 37 to looped/cyclic peptides of protein X5 of SARS-CoV Urbani / Binding of serum 6 to linear peptides of protein N of SARS-CoV Urbani / Binding of serum 37 to linear peptides of protein N of SARS-CoV Urbani / Binding of serum 6 to linear peptide (PEPSCAN-ELISA) / Binding of serum 1a to looped/cyclic peptides of protein N of SARS-CoV Urbani / Binding of serum 1b to looped/cyclic peptides of protein N of SARS-CoV Urbani / Binding of serum 2 to looped/cyclic peptides of protein N of SARS-CoV Urbani / Binding of serum 6 to looped/cyclic peptides of protein N of SARS-CoV Urbani / Binding of serum 37 to looped/cyclic peptides of protein N of SARS-CoV Urbani / Binding of serum 62 to looped/cyclic peptides of protein N of SARS-CoV Urbani / Binding of serum London to looped/cyclic peptides of protein N of SARS-CoV Urbani / Binding of serum SARS-green to looped/cyclic peptides of protein N of SARS-CoV Urbani: unit not given here

VRYNTRGNTYSTAWL
1.2: Rabbit serum looped peptides [2]
0.2: Binding of serum London to looped/cyclic peptides of protein X5 of SARS-CoV Urbani [3]
0.9: Binding of Control serum Blood-bank to linear peptides [1]
0.7: Rabbit serum linear peptides [2] | Binding of serum 1a to linear peptides of protein X5 of SARS-CoV Urbani [3] | Binding of serum 6 to linear peptides of protein X5 of SARS-CoV Urbani [3] | Binding of serum 62 to linear peptides of protein X5 of SARS-CoV Urbani [3] | Binding of serum London to linear peptides of protein X5 of SARS-CoV Urbani [3]
0.3: Binding of Control Serum Blood-Bank to Looped peptides [1] | Binding of serum 1b to looped/cyclic peptides of protein X5 of SARS-CoV Urbani [3] | Binding of serum 6 to looped/cyclic peptides of protein X5 of SARS-CoV Urbani [3]
0.4: Binding of serum 1b to linear peptides of protein X5 of SARS-CoV Urbani [3] | Binding of serum 2 to linear peptides of protein X5 of SARS-CoV Urbani [3] | Binding of serum 2 to looped/cyclic peptides of protein X5 of SARS-CoV Urbani [3] | Binding of serum 62 to looped/cyclic peptides of protein X5 of SARS-CoV Urbani [3] | Binding of serum SARS-green to linear peptides of protein X5 of SARS-CoV Urbani [3] | Binding of serum SARS-yellow to linear peptides of protein X5 of SARS-CoV Urbani [3]
0.6: Binding of serum 37 to linear peptides of protein X5 of SARS-CoV Urbani [3] | Binding of serum 37 to looped/cyclic peptides of protein X5 of SARS-CoV Urbani [3] | Binding of serum SARS-green to looped/cyclic peptides of protein X5 of SARS-CoV Urbani [3] | Binding of serum SARS-yellow to looped/cyclic peptides of protein X5 of SARS-CoV Urbani [3]
0.5: Binding of Control serum LUMC to linear peptides [1] | Binding of Control serum LUMC to looped peptides [1] | Binding of serum 1a to looped/cyclic peptides of protein X5 of SARS-CoV Urbani [3]

VSQIQLSLLKVTAFQ
0.8: Binding of Control serum LUMC to linear peptides [1] | Binding of serum London to looped/cyclic peptides of protein X2 of SARS-CoV Urbani [3]
0.1: Binding of serum SARS-green to linear peptides of protein X2 [3]
0.3: Binding of serum 62 to linear peptides of protein X2 [3] | Binding of serum London to linear peptides of protein X2 [3] | Binding of serum SARS-green to looped/cyclic peptides of protein X2 of SARS-CoV Urbani [3]
0.5: Binding of Control serum Blood-bank to linear peptides [1] | Binding of serum 1a to linear peptides of protein X2 [3] | Binding of serum 1a to looped/cyclic peptides of protein X2 of SARS-CoV Urbani [3] | Binding of serum 6 to linear peptides of protein X2 [3]
0.4: Binding of a rabbit serum to looped peptides [2] | Binding of serum 1b to linear peptides of protein X2 [3] | Binding of serum 1b to looped/cyclic peptides of protein X2 of SARS-CoV Urbani [3] | Binding of serum 2 to linear peptides of protein X2 [3] | Binding of serum 2 to looped/cyclic peptides of protein X2 of SARS-CoV Urbani [3] | Binding of serum 37 to looped/cyclic peptides of protein X2 of SARS-CoV Urbani [3] | Binding of serum SARS-yellow to linear peptides of protein X2 [3]
0.6: Binding of Control Serum Blood-Bank to Looped peptides [1] | Binding of Control serum LUMC to looped peptides [1] | Binding of a rabbit serum to linear peptides [2] | Binding of serum 6 to looped/cyclic peptides of protein X2 of SARS-CoV Urbani [3] | Binding of serum 37 to linear peptides of protein X2 [3] | Binding of serum 62 to looped/cyclic peptides of protein X2 of SARS-CoV Urbani [3] | Binding of serum SARS-yellow to looped/cyclic peptides of protein X2 of SARS-CoV Urbani [3]

VTAFQHQNSKKTTKL
0.2: Binding of serum 2 to linear peptides of protein X2 [3] | Binding of serum London to looped/cyclic peptides of protein X2 of SARS-CoV Urbani [3] | Binding of serum SARS-green to looped/cyclic peptides of protein X2 of SARS-CoV Urbani [3]
0.6: Binding of a rabbit serum to linear peptides [2]
0.4: Binding of a rabbit serum to looped peptides [2] | Binding of serum 1a to linear peptides of protein X2 [3] | Binding of serum 1a to looped/cyclic peptides of protein X2 of SARS-CoV Urbani [3] | Binding of serum 1b to linear peptides of protein X2 [3]
0.7: Binding of serum SARS-yellow to linear peptides of protein X2 [3]
0.3: Binding of Control serum Blood-bank to linear peptides [1] | Binding of serum 1b to looped/cyclic peptides of protein X2 of SARS-CoV Urbani [3] | Binding of serum 6 to linear peptides of protein X2 [3] | Binding of serum 6 to looped/cyclic peptides of protein X2 of SARS-CoV Urbani [3] | Binding of serum 37 to looped/cyclic peptides of protein X2 of SARS-CoV Urbani [3] | Binding of serum 62 to linear peptides of protein X2 [3]
0.1: Binding of serum 2 to looped/cyclic peptides of protein X2 of SARS-CoV Urbani [3] | Binding of serum London to linear peptides of protein X2 [3] | Binding of serum SARS-green to linear peptides of protein X2 [3]
0.5: Binding of Control Serum Blood-Bank to Looped peptides [1] | Binding of Control serum LUMC to linear peptides [1] | Binding of Control serum LUMC to looped peptides [1] | Binding of serum 37 to linear peptides of protein X2 [3] | Binding of serum 62 to looped/cyclic peptides of protein X2 of SARS-CoV Urbani [3] | Binding of serum SARS-yellow to looped/cyclic peptides of protein X2 of SARS-CoV Urbani [3]
